Measured values as given in patent US9464106B2, “Oligonucleotides useful for detecting and analyzing nucleic acids of interest” (Exiqon A/S, priority 2002, dated 2016).
l = locked nucleic acid (LNA); [5mC] = 5-methylcytosine; d = 2'-deoxy (DNA)

Each substance was assayed on yeast HSP78 (YDR258C) sequence (assay: Duplex melting temperatures of HSP78 25-mer capture probes (UV spectrophotometer)). Settings: 25-mer capture probe duplex with complementary target; design PM = perfectly matched, MM = single mismatch; DNA, LNA_T (T) or LNA_TC (TC) substituted.

Substance	Average duplex melting temp. [°C]
12777 (DNA CAATGATCGTGTTACGGAAATCAAC; sugars from the 5' end dddlddlddlddldddddddldddd, backbone not given here; further chemistry not fully specified) [compound 12777]	72.2
12778 (DNA TGGCCTAGGGAATCGGTCAGCTTAC; DNA at ACG, LNA at T, backbone not given here; further chemistry not fully specified) [compound 12778]	76.9
12779 (DNA TTGGAAACATCGGGGTGCGCTTTTT; sugars from the 5' end lldddddddldddddlddddlllld, backbone not given here; further chemistry not fully specified) [compound 12779]	76.7
12780 (DNA GAAACATCGGGGTGCGCTTTTTCAA; DNA at ACG, LNA at T, backbone not given here; further chemistry not fully specified) [compound 12780]	78
12781 (DNA GACAGCCTCAGTTAATTGGCCACCA; sugars from the 5' end dddddddlddddlddlldddddddd, backbone not given here; further chemistry not fully specified) [compound 12781]	75.4
12782 (DNA CCGATTAAACGAGAGACAGTATGCT; sugars from the 5' end ddddlldddddddddddddldlddd, backbone not given here; further chemistry not fully specified) [compound 12782]	72.2
12783 (DNA ATCAAATAGGAATTCAGCTAAAGCC; DNA at ACG, LNA at T, backbone not given here; further chemistry not fully specified) [compound 12783]	66.3
12784 (DNA GACCTAAGAACATAAAGCTGGCAAT; sugars from the 5' end ddddldddddddldddddldddddd, backbone not given here; further chemistry not fully specified) [compound 12784]	67.5
12785 (DNA AAATAGCAGCAATGGCCTCGTCTTG; DNA at ACG, LNA at T, backbone not given here; further chemistry not fully specified) [compound 12785]	77.2
12786 (DNA ATAGCAGCAATGGCCTCGTCTTGGC; DNA at ACG, LNA at T, backbone not given here; further chemistry not fully specified) [compound 12786]	80.1
12787 (DNA GCAATGGCCTCGTCTTGGCCAACGA; DNA at ACG, LNA at T, backbone not given here; further chemistry not fully specified) [compound 12787]	80.8
12788 (DNA GATGAACTCAGGTGGATAGGATCTT; sugars from the 5' end ddlddddlddddldddlddddldld, backbone not given here; further chemistry not fully specified) [compound 12788]	71
12789 (DNA TCAGTTAGCCAATCCTTCGCTTCAT; sugars from the 5' end ldddllddddddlddlldddllddd, backbone not given here; further chemistry not fully specified) [compound 12789]	75.7
12790 (DNA GTTGCCATGGAGTTCAAAATCTGTC; sugars from the 5' end dllddddlddddlddddddldldld, backbone not given here; further chemistry not fully specified) [compound 12790]	74.7
12791 (DNA AGACGTACAGCATCAGAAATAGCAG; DNA at ACG, LNA at T, backbone not given here; further chemistry not fully specified) [compound 12791]	71.4
12792 (DNA TTTGGTAGCACGACAAGCTTAGTAT; sugars from the 5' end lllddlddddddddddddllddldd, backbone not given here; further chemistry not fully specified) [compound 12792]	74.2
12793 (DNA ATAAAGCTGGCAATAGGTCTCTTTT; sugars from the 5' end dldddddldddddldddldldllld, backbone not given here; further chemistry not fully specified) [compound 12793]	74.3
12794 (DNA TTTTTCGGCCAAACGATCTTGAATT; sugars from the 5' end ldllldddddddddddldlldddld, backbone not given here; further chemistry not fully specified) [compound 12794]	71

Substance	Average duplex melting temp. [°C]
12795 (DNA CACTCTAACAGTTTCGCCGTTTCTA; sugars from the 5' end dddldlddddddlddddddllldld, backbone not given here; further chemistry not fully specified) [compound 12795]	75.5
12796 (DNA TCAATGGCCTTGCACCATATAATTG; DNA at ACG, LNA at T, backbone not given here; further chemistry not fully specified) [compound 12796]	74
12797 (DNA AAAACGACAGCATAAGGCTTTCTTC; DNA at ACG, LNA at T, backbone not given here; further chemistry not fully specified) [compound 12797]	71.7
12798 (DNA ATTGACCTCAAAACTTTCTTGGATA; DNA at ACG, LNA at T, backbone not given here; further chemistry not fully specified) [compound 12798]	70.2
12799 (DNA CCCAACTTTGTGTCGTTTAATAAAA; DNA at ACG, LNA at T, backbone not given here; further chemistry not fully specified) [compound 12799]	75.1
12800 (DNA ACCATCATCACCCAACCTTGTGTCG; sugars from the 5' end dlddlddldddllddddlddlddld, [5mC] at 2, 12, 13, 24, backbone not given here; further chemistry not fully specified) [compound 12800]	74.2
12802 (DNA TGGCCTAGGGAATCGGTCAGCTTAC; sugars from the 5' end lddldlddddddllddldddldldd, [5mC] at 4, 14, 21, backbone not given here; further chemistry not fully specified) [compound 12802]	83.6
12803 (DNA TTGGAAACATCGGGGTGCGCTTTTT; sugars from the 5' end lldddddlddlddddldldddldld, [5mC] at 8, 11, 18, backbone not given here; further chemistry not fully specified) [compound 12803]	80.8
12804 (DNA GAAACATCGGGGTGCGCTTTTTCAA; sugars from the 5' end ddddldllddddldldddddldldd, [5mC] at 5, 8, 15, 23, backbone not given here; further chemistry not fully specified) [compound 12804]	83.2
12805 (DNA GACAGCCTCAGTTAATTGGCCACCA; sugars from the 5' end ddlddldlddddlddlldddlddld, [5mC] at 3, 6, 21, 24, backbone not given here; further chemistry not fully specified) [compound 12805]	82.5
12806 (DNA CCGATTAAACGAGAGACAGTATGCT; sugars from the 5' end llddlldddlddddddlddldldld, all C 5-methyl, backbone not given here; further chemistry not fully specified) [compound 12806]	79.4
12807 (DNA ATCAAATAGGAATTCAGCTAAAGCC; sugars from the 5' end dlldddldddddldlddllddddld, [5mC] at 3, 15, 18, 24, backbone not given here; further chemistry not fully specified) [compound 12807]	71.4
12808 (DNA GACCTAAGAACATAAAGCTGGCAAT; sugars from the 5' end ddllldddddldlddddllddlddd, all C 5-methyl, backbone not given here; further chemistry not fully specified) [compound 12808]	78.9
12809 (DNA AAATAGCAGCAATGGCCTCGTCTTG; sugars from the 5' end dddlddlddlddlddldlldlddld, [5mC] at 7, 10, 16, 19, backbone not given here; further chemistry not fully specified) [compound 12809]	86.8
12810 (DNA ATAGCAGCAATGGCCTCGTCTTGGC; sugars from the 5' end dlddldddddlddldldddldlddd, [5mC] at 5, 14, 20, backbone not given here; further chemistry not fully specified) [compound 12810]	83
12811 (DNA GCAATGGCCTCGTCTTGGCCAACGA; sugars from the 5' end d10 l1 d1 l2 d11, [5mC] at 11, 14, backbone not given here; further chemistry not fully specified) [compound 12811]	79.3
12812 (DNA GATGAACTCAGGTGGATAGGATCTT; sugars from the 5' end ddldddllldddldddlddddllld, all C 5-methyl, backbone not given here; further chemistry not fully specified) [compound 12812]	77.3
